In general, IC50 refers to the concentration that gives 50% inhibition.

In publication PMC3821043 (Biochemical pharmacology, 2012) one finds IC50 data, which are given here for one compound.

The assay concerns the target T1, ABCG2 (breast cancer resistance protein) (Homo sapiens, UniProt Q9UNQ0).
T1 sequence (Q9UNQ0 1-655): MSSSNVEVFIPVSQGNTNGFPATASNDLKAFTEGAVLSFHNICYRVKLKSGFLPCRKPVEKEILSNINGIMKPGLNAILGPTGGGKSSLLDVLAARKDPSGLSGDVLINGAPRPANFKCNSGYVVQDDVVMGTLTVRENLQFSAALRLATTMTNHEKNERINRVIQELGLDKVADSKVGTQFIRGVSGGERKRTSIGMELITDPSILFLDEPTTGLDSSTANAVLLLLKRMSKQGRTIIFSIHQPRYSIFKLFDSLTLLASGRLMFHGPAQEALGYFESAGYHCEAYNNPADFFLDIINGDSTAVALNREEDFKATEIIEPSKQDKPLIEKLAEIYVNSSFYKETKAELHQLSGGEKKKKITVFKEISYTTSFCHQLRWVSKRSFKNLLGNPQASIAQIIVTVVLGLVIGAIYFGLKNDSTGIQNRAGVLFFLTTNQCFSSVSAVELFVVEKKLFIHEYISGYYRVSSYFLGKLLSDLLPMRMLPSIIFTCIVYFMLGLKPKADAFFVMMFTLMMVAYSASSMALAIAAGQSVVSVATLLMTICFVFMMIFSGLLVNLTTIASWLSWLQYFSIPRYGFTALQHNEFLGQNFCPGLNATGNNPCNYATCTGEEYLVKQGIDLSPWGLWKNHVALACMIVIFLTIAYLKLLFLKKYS
As to the kind of experiment: competition of […]IAAP photoaffinity labeling. It is filed as binding.

In turn, `CN1CCC(CNc2ccc3ncc(-c4cccc(OC(F)(F)F)c4)n3n2)CC1` [SGI-1776] returned an IC50 of 90 nM. This lies in the double-digit nanomolar range.
